# Reference: US11952364B2, “TRK inhibitors useful as anticancer drugs” (TYLIGAND BIOSCIENCE (SHANGHAI) LIMITED, priority 2018, dated 2024)
# System: Ba/F3 ETV6-NTRK3 cells
# Experiment: Proliferation of Ba/F3 ETV6-NTRK3 cells (CellTiter-Glo)
# Format: cell-based
# Settings: Mus musculus, BaF3; Table 3; 72 hours
# Text: Ba/F3 ETV6-NTRK3 is a stable transgenic cell line constructed by KYinno Biotechnology Co., Ltd. on mouse primary B cell Ba/F3 wherein NTRK3 is highly expressed and fused with ETV6 to form ETV6-NTRK3. • [Test method]: Promega's CellTiter-Glo® Luminescent Cell Viability Assay kit was used to evaluate the inhibitory activity of the compounds on the proliferation of Ba/F3 ETV6-NTRK3 cells. • [Instrument]: Spectramax M3 multifunctional microplate reader from Molecular Devices. • [Test materials]: Ba/F3 ETV6-NTRK3 cell line (constructed by KYinno Biotechnology Co., Ltd. (Beijing)), 96-well transparent flat-bottomed black-walled cell culture plate (Corning, cat #3603), RPMI-1640 media (GE, cat #SH30027.01), fetal bovine serum FBS (Thermo Fisher, cat #10099-141), CellTiter-Glo® Luminescent Cell Viability Assay kit (Promega, cat #G7572), PBS (Solarbio, cat #P1020), DMSO (Sigma, cat #D2650). • [Experimental procedure]: When resuscitating Ba/F3 ETV6-NTRK3 cells, the freezing tube was quickly shaken in a 37° C. water bath to melt within 1 minute. The thawed cell suspension was mixed uniformly with RPMI1640 medium containing 10% FBS, centrifuged at 1000 rpm for 5 minutes, and the supernatant discarded. 5 mL of complete medium (RPMI1640 medium with 10% FBS) was taken to resuspend the cell pellets, charged into a cell culture flask with a bottom area of 25 cm^2, and incubated in a cell incubator at 37° C., 95% humidity and 5% CO2. Cells were allowed to passage when the number of cells reached about 10^6 cells/mL. For cell passage, the old cell suspension was directly pipetted evenly, 1/5 of the cell suspension was kept, 4 mL of new complete medium was added, after pipetting evenly, the cell flask was placed in the cell incubator for further culturing. Cell plating was performed when the number of cells reached about 10^6 cells/mL again. For cell plating, 1/5 of the cell suspension was kept for further culturing as in the cell passage method, and the remaining 4/5 of the cell suspension was placed in a 15 mL centrifuge tube, detected for cell viability by Trypan blue exclusion method to ensure that cell viability was above 90%. A cell suspension with a density of 5.56×10^4 viable cells/mL was prepared with complete medium, and 90 μL of such cell suspension was added to a 96-well cell culture plate to obtain the cell density of 5000 viable cells/mL in the cell culture plate. A control group containing no cells, no compound and only complete medium (i.e. culture medium control) and a control group containing no compound but containing cells (i.e. cell control) were set. The cell plate was placed in a cell incubator overnight. The 10 mM compound stock solution in DMSO was first serially diluted with DMSO at a dilution factor of 3.16 times, to obtain 9 concentrations, and the 10th concentration was set as DMSO control without compound. Then, PBS was used to dilute the DMSO solutions of compounds of different concentrations, at a dilution factor of 100 times, so that the DMSO concentration in the compound solution of each concentration was 1%. Finally, 10 μL of each of the above solutions was added to the corresponding cell culture plate, so that the initial compound concentration was 10 μM, with the remaining concentrations being successively diluted at a dilution factor of 3.16 times, and the DMSO content in the cell culture plate was 0.1%. The cell plate was placed in a cell incubator and cultured for 72 hours. For endpoint detection, the CellTiter-Glo reagent was melted, and the cell plate was moved to room temperature to equilibrate for 30 minutes, added with 100 μL of CellTiter-Glo for each well, and shaken on an orbital shaker for 5 minutes to fully lyse the cells. The plate was kept at room temperature for 20 minutes to stabilize the luminescence signal, and the luminescence value of each well was scanned with a multi-functional microplate reader at full wavelength. • [Test samples]
row,SMILES,IC50
1,"O=C(Nc1cnn2ccc(N3CCC[C@@H]3c3cc(F)ccc3F)nc12)N1CC[C@H](O)C1 [LOXO-101, Larotrectinib, reference compound]",5 nM
2,"CCn1ncc2cc(Oc3ccc(NC(=O)c4ccc(C)n(-c5ccc(F)cc5)c4=O)cc3F)c(-c3cn[nH]c3)cc21 [Example 3, N-(3-fluoro-4-(1-ethyl-6-(1H-pyrazol-4-yl)-1H-indazol-5-yloxy)phenyl)-1-(4-fluorophenyl)-6-methyl-2-oxo-1,2-dihydmpyridine-3-carboxamide]",663 nM
3,"Cn1ncc2cc(Oc3ccc(NC(=O)c4ccc(C5CC5)n(-c5ccc(F)cc5)c4=O)cc3F)c(-c3cn[nH]c3)cc21 [Example 2, N-(3-fluoro-4-(1-methyl-6-(1H-pyrazol-4-yl)-1H-indazol-5-yloxy)phenyl)-1-(4-fluorophenyl)-6-cyclopropyl-2-oxo-1,2-dihydmpyridine-3-carboxamide]",94 nM
4,"CCc1ccc(C(=O)Nc2ccc(Oc3cc4cnn(C)c4cc3-c3cn[nH]c3)c(F)c2)c(=O)n1-c1ccc(F)cc1 [Example 5, N-(3-fluoro-4-(1-methyl-6-(1H-pyrazol-4-yl)-1H-indazol-5-yloxy)phenyl)-1-(4-fluorophenyl)-6-ethyl-2-oxo-1,2-dihydropyridine-3-carboxamide]",60 nM

# The remaining compounds from weak to strong by IC50, led by results:
row,IC50,SMILES
1,762 nM,"Cc1ccc(C(=O)Nc2ccc(Oc3cc4cnn(C(C)C)c4cc3-c3cn[nH]c3)c(F)c2)c(=O)n1-c1ccc(F)cc1 [Example 4, N-(3-fluoro-4-(1-isopropyl-6-(1H-pyrazol-4-yl)-1H-indazol-5-yloxy)phenyl)-1-(4-fluorophenyl)-6-methyl-2-oxo-1,2-dihydmpyridine-3-carboxamide]"
2,684 nM,"Cc1ccc(C(=O)Nc2ccc(Oc3cc4cnn(C)c4cc3-c3cn[nH]c3)c(F)c2)c(=O)n1-c1ccc(F)cc1 [Merestinib, reference compound]"
3,435 nM,"Cn1ncc2cc(Oc3ccc(NC(=O)c4ccc(C(F)(F)F)n(-c5ccc(F)cc5)c4=O)cc3F)c(-c3cn[nH]c3)cc21 [Example 1, N-(3-fluoro-4-(1-methyl-6-(1H-pyrazol-4-yl)-1H-indazol-5-yloxy)phenyl)-1-(4-fluorophenyl)-6-trifluoromethyl-2-oxo-1,2-dihydmpyridine-3-carboxamide monomethanesulfonate]"
4,284 nM,"CC(C)c1ccc(C(=O)Nc2ccc(Oc3cc4cnn(C)c4cc3-c3cn[nH]c3)c(F)c2)c(=O)n1-c1ccc(F)cc1 [Example 6, N-(3-fluoro-4-(1-methyl-6-(1H-pyrazol-4-yl)-1H-indazol-5-yloxy)phenyl)-1-(4-fluorophenyl)-6-isopropyl-2-oxo-1,2-dihydropyridine-3-carboxamide]"
